Experiments:
HepG2 = test: Cytotoxicity against human HepG2 cells assessed as depletion of ATP content up to 500 uM incubated for 48 to 72 hrs by CellTiter-Glo luminescent assay; format: toxicity, cell-based; settings: hepg2, 500 µM, time 48-72 hrs
Hepatocyte [1] = test: Cytotoxicity against Wistar Han rat hepatocytes assessed as depletion of ATP content up to 500 uM incubated for 48 to 72 hrs by CellTiter-Glo luminescent assay; format: toxicity, cell-based; settings: time 48-72 hrs
Hepatocyte [2] = test: Cytotoxicity against human primary hepatocytes assessed as depletion of ATP content up to 500 uM incubated for 48 to 72 hrs by CellTiter-Glo luminescent assay; format: toxicity, cell-based; settings: time 48-72 hrs
[3] = target: T1, Proteasome subunit beta type-6 (Homo sapiens, UniProt P28072); test: Inhibition of human 20S […] beta1 subunit using Ac-nLPnLD-AMC as substrate preincubated for 2 hrs followed by substrate addition and measured after 1 hr by fluorescence intensity assay
T1 sequence (P28072 whole entry): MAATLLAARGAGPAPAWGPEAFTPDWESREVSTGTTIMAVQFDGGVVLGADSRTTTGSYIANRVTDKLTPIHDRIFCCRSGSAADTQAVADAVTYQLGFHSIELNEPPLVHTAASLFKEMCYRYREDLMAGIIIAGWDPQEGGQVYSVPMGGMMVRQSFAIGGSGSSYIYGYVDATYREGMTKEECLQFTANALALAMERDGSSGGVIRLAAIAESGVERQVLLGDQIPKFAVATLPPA

Homo sapiens [4] = organism: Homo sapiens; test: Selectivity ratio of IC50 for inhibition of human 20S proteasome beta5 subunit to IC50 for inhibition of human 20S immunoproteasome beta-5i subunit
[5] = target: T2, Proteasome subunit beta type-10 (Homo sapiens, UniProt P40306); test: Inhibition of human 20S immunoproteasome beta-2i subunit using Ac-RLR-AMC as substrate preincubated for 2 hrs followed by substrate addition and measured after 1 hr by fluorescence intensity assay
T2 sequence (P40306 whole entry): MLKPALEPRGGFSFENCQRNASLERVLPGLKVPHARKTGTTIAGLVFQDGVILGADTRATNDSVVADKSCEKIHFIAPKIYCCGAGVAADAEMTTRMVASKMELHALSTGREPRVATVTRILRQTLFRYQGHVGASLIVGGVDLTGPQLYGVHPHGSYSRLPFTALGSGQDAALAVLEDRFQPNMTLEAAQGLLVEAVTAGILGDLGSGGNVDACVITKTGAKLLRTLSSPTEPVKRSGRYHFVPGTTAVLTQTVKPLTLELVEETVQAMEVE

[6] = target: T3, Proteasome subunit beta type-8 (Homo sapiens, UniProt P28062); test: Inhibition of human 20S immunoproteasome beta-5i subunit using Suc-LLVY-AMC as substrate preincubated for 2 hrs followed by substrate addition and measured after 1 hr by fluorescence intensity assay
T3 sequence (P28062 whole entry): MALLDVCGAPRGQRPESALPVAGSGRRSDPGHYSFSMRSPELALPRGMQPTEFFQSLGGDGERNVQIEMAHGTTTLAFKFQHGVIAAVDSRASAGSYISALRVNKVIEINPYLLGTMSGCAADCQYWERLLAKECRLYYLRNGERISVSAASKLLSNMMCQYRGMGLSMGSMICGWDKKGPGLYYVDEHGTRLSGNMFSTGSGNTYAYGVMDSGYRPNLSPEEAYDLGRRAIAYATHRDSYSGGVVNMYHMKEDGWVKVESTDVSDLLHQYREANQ

[7] = target: T4, Proteasome subunit beta type-9 (Homo sapiens, UniProt P28065); test: Inhibition of human 20S immunoproteasome beta-1i subunit using (Ac-PAL)2R110 as substrate preincubated for 2 hrs followed by substrate addition and measured after 1 hr by fluorescence intensity assay
T4 sequence (P28065 whole entry): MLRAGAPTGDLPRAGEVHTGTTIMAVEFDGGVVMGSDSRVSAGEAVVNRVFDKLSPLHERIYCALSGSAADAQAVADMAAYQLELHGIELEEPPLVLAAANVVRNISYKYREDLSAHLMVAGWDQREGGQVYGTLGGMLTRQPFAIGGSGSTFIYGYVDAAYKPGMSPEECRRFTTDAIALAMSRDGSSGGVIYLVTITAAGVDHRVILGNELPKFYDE

[8] = target: T5, Proteasome Macropain subunit MB1 (Homo sapiens, UniProt P28074); test: Inhibition of human 20S proteasome beta5 subunit using Suc-LLVY-AMC as substrate preincubated for 2 hrs followed by substrate addition and measured after 1 hr by fluorescence intensity assay
T5 sequence (P28074 whole entry): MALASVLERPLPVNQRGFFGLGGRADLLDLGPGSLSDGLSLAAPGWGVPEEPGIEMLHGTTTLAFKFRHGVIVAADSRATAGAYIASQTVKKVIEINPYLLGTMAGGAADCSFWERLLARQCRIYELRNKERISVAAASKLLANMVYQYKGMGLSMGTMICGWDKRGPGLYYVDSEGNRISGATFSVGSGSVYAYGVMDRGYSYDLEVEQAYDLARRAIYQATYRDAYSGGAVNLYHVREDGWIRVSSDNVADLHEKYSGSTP

[9] = target: T6, Proteasome subunit beta type-7 (Homo sapiens, UniProt Q99436); test: Inhibition of human 20S proteasome beta2 subunit using Ac-RLR-AMC as substrate preincubated for 2 hrs followed by substrate addition and measured after 1 hr by fluorescence intensity assay
T6 sequence (Q99436 whole entry): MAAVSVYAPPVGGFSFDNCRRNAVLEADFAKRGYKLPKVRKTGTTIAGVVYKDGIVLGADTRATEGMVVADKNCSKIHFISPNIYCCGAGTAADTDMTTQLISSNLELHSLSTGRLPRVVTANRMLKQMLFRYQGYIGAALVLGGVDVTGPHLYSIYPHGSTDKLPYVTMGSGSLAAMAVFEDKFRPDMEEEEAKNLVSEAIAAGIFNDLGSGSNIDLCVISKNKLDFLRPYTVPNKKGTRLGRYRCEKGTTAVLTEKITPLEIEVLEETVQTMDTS

[10] = target: T5, Proteasome Macropain subunit MB1; test: Inhibition of 20S proteasome beta5 subunit in human A549 cells using Suc-LLVY-luciferin substrate preincubated for 2 hrs followed by substrate addition and measured after 30 mins by luminometric analysis; format: cell-based
[11] = Distribution coefficient, log D of the compound; format: physicochemical; settings: octanol/water
[12] = Half life in iv dosed mouse; format: ADME, organism-based; settings: in vivo
[13] = Kinetic solubility of the compound; format: physicochemical; settings: read-out: Kinetic_solubility
[14] = Intrinsic clearance in mouse liver microsomes measured per mg protein; format: ADME, Microsome; settings: read-out: CLH
[15] = Volume of distribution at steady state in iv dosed mouse; format: ADME, organism-based; settings: in vivo
[16] = Intrinsic clearance in human liver microsomes measured per mg protein; format: ADME, Microsome
[17] = Clearance in iv dosed mouse; format: ADME, organism-based; settings: in vivo
Homo sapiens [18] = organism: Homo sapiens; test: Selectivity ratio of IC50 for inhibition of 20S proteasome beta5 subunit in human A549 cells to IC50 for inhibition of 20S immunoproteasome beta-5i subunit in human PBMC; format: cell-based
[19] = Lipophilicity, log P of the compound; format: physicochemical; settings: octanol/water
[20] = target: T3, Proteasome subunit beta type-8; test: Inhibition of 20S immunoproteasome beta-5i subunit in human PBMC using Ac-ANW-luciferin substrate preincubated for 2 hrs followed by substrate addition and measured after 30 mins by luminometric analysis; format: cell-based
[21] = Oral bioavailability in mouse at 0.5 mg/kg; format: ADME, organism-based; settings: in vivo
[22] = Clearance in mouse hepatocytes measured per million of cells; format: ADME, cell-based, Hepatocyte; settings: read-out: CLH
[23] = Clearance in human hepatocytes measured per million of cells; format: ADME, cell-based, Hepatocyte; settings: read-out: CLH

SMILES	IC50 [3] [nM]	Ratio IC50 (Homo sapiens [4])	IC50 [5] [nM]	IC50 [6] [nM]	IC50 [7] [nM]	IC50 [8] [nM]	IC50 [9] [nM]	IC50 [10] [nM]	logD [11]	solubility kinetic [13] [µM]	logP [19]	IC50 [20] [nM]	bioavailability [21] [%]	microsomal CLint [14] [µL/min/mg]	CLH [16] [µL/min/mg]	Ratio IC50 (Homo sapiens [18])	other results
CC(C)C[C@H](NC(=O)[C@H](Cc1ccccc1)NC(=O)c1cnccn1)B(O)O [BORTEZOMIB]	–	–	–	–	–	–	–	–	–	–	–	–	–	–	–	–	Activity (HepG2): Toxic; Activity (Hepatocyte [1]): Toxic; Activity (Hepatocyte [2]): Toxic
CC(C)C[C@H](NC(=O)CNC(=O)c1cc(Cl)ccc1Cl)B(O)O	64	–	4870	2.9	2.7	–	> 30000	–	–	–	–	–	–	–	–	–	–
O=C(N[C@@H](Cc1coc2ccccc12)B(O)O)[C@H]1C[C@@H]2CC[C@H]1O2	–	444	–	15	–	6500	–	2440	–	–	2.25	19.6	–	16	< 10	124	hepatocyte CLint [22]: 15.9 µL/min/1e6 cells; hepatocyte CLint [23]: 6.6 µL/min/1e6 cells

Second part, led by results:

IC50 [3] [nM]	Ratio IC50 (Homo sapiens [4])	IC50 [5] [nM]	IC50 [6] [nM]	IC50 [7] [nM]	IC50 [8] [nM]	IC50 [9] [nM]	IC50 [10] [nM]	logD [11]	solubility kinetic [13] [µM]	logP [19]	IC50 [20] [nM]	bioavailability [21] [%]	SMILES	microsomal CLint [14] [µL/min/mg]	CLH [16] [µL/min/mg]	Ratio IC50 (Homo sapiens [18])	other results
8500	24	4000	1.7	11	41	> 30000	–	–	–	–	–	–	CCc1cccc(C[C@H](NC(=O)[C@H](Cc2ccccc2)NC(=O)c2cnccn2)B(O)O)c1	–	–	–	–
–	758	–	3.1	–	2400	–	2520	1.3	> 200	1.75	20	13	N#Cc1ccccc1CC(=O)N[C@@H](C[C@@H]1COc2ccccc21)B(O)O	37	< 10	126	half-life [12]: 42.6 min; Vd ([15]; read-out: Vdss): 1.88 L/kg; clearance [17]: 32.8 mL/min/kg
–	419	–	2.1	–	900	–	573	1	> 200	3.5	14	37	O=C(Cc1ccccc1)N[C@@H](Cc1coc2ccccc12)B(O)O	–	–	41	t1/2 ([12]; iv): 22.2 min; Vdss ([15]; iv): 2.25 L/kg; CL ([17]; iv): 3 mL/min/kg

— ChEMBL document CHEMBL5149996, “Structure-Based Optimization and Discovery of M3258, a Specific Inhibitor of the Immunoproteasome Subunit LMP7 (β5i)” (J Med Chem, 2021)
